{
  "source": "patent USRE42930E1",
  "about": "“Aziridinyl-epothilone compounds” (Bristol-Myers Squibb Company, priority 2006, dated 2011)",
  "key": {"[1]": {"system": "clonogenic KB cancer cells", "test": "Clonogenic cell survival (colony formation) assay", "type": "cell-based, human", "experimental": "Cancer cells were seeded at 3.0E+05 cells in a T75 flask with 10 ml of RPMI1640 media, free of folic acid, and containing 10% fetal bovine serum and 25 mM HEPES. Cells were grown in a 37° C. incubator containing 5% CO2 for 2 days. On day 2, supernatants were removed from the flasks, and the flasks were divided into 2 groups. One group of cells were incubated with 5 ml of media containing […] of folic acid (Sigma) for 30 minutes and the others were grown in 5 ml of media without added folic acid. Cells were then treated with 20 nM of epothilone, epothilone analog, conjugated epothilone, or conjugated epothilone analog for one hour. At the end of the incubation, the drugs were removed from the flasks and the cells were washed with PBS buffer 3×. After washing, 5 ml of complete media were added into each flask, and the cell was grown in the CO2 incubator for 23 hours. The next morning, the cells were removed from the flasks by trypsinization, cell numbers were determined, and then cells were plated in a 6 well plates. Ten days after plating, colonies were stained with crystal violet and counted. The surviving fractions were determined.\nThis is important because it is the aziridine epothilone analog, e.g., Compound G, that mediates the antitumor effects upon release from folic acid. […] The concentration needed to kill 90% of clonogenic KB cancer cells (IC90) was determined after a drug exposure duration of 17 hours."}, "A2780Tax": {"system": "A2780Tax", "type": "cell-based, human", "experimental": "(§1) In vitro cytotoxicity was assessed in tumor cells using a tetrazolium-based colorimetric assay which takes advantage of the metabolic conversion of MTS (3-(4,5-dimethylthiazol-2-yl)-5-(3-carboxymethoxyphenyl)-2-(4-sulphenyl)-2H-tetrazolium, inner salt) to a reduced form that absorbs light at 492 nm. Cells were seeded 24 hr prior to addition of the epothilone, epothilone analog, conjugated epothilone, or conjugated epothilone analog. Following a 72 hour incubation at 37° C. with serially diluted compound, MTS, in combination with the electron coupling agent phenazine methosulfate, was added to the cells. The incubation was continued for 3 hours, then the absorbency of the medium at 492 nm was measured with a spectrophotometer to obtain the number of surviving cells relative to control populations. The results are expressed as median cytotoxic concentrations (IC50 values).\n(§2) Other epothilone analogs, e.g., aziridinyl epothilones, are known in the art (see, e.g., U.S. Pat. No. 6,399,638; Regueiro-Ren, A, et al. (2001) Org. Letters. 3:2693-96) and show potent antitumor cytotoxicity. For example, an MTS assay that compared the relative cytotoxic potency of a number of epothilone analogs against a pair of taxane-resistant cancer cell lines (HCTVM46 and […]) was conducted (see Table 1). HCTVM46 is a human colon carcinoma cell line derived from the sensitive HCT116 parent line, and is resistant to taxanes due to overexpression of the 170 kD p-glyprotein drug efflux transporter. A2780Tax is a human ovarian carcinoma cell line derived from the parent A2780 line, and is resistant to paclitaxel as a result of a mutation in the tubulin amino acid sequence that impairs the ability of paclitaxel to bind."}, "HCT116VM46": {"system": "HCT116VM46", "test": "In vitro MTS cytotoxicity assay, taxane-resistant HCT116VM46 (R/S ratio)", "type": "cell-based, human", "settings": "R/S ratio = HCT116VM46 IC50/HCT116 IC50", "experimental": "as §1, §2"}, "[2]": {"system": "HCT116 colon carcinoma cell line", "test": "cells", "type": "cell-based, human", "experimental": "as §1, §2\n(§3) As is shown in Table 1, various aziridinyl epothilone analogs (Compounds CC-EE) show potent antitumor activity against both the HCT116 colon and A2780 ovarian carcinoma cell lines, compared to other known antitumor agents, e.g., paclitaxel, compound AA, and epothilone B."}, "[3]": {"system": "A2780 ovarian carcinoma cell line", "test": "In vitro MTS proliferation/cytotoxicity assay, A2780", "type": "cell-based, human", "experimental": "as §1, §2, §3"}, "[4]": {"system": "KB nasopharyngeal epidermoid carcinoma xenografts", "test": "In vivo antitumor efficacy, KB FRα(+) xenografts in nude mice", "settings": "KB model, FIG. 4", "description": "(§4) Female CD2F1 mice (Harlan Sprague-Dawley Inc., 20-22 g) maintained in a controlled environment and provided with water and food ad libitum were used in these studies. The murine FRα(−) Madison 109 (M109) lung carcinoma (Marks et al., 1977) and the FR-expressing (FRα(+)) 98M109 variant were used to evaluate the efficacy of the epothilone, epothilone analog (e.g., epothilone derivative), folate-epothilone conjugate, or folate-epothilone analog conjugate. In addition, the human head and neck epidermoid carcinoma KB grown in nude mice was also used for this purpose. […]\n(§5) Tumor response was determined by measurement of tumors with a caliper twice a week, until the tumors reached a predetermined “target” size of 1 gm. […]\n(§6) Antitumor activity was evaluated at the maximum tolerated dose (MTD) which is defined as the dose level immediately […] which excessive toxicity (i.e. more than one death) occurred. When death occurred, the day of death was recorded. […]\n(§7) To estimate tumor cell kill, the tumor volume doubling time (TVDT) was first calculated with the formula: TVDT=Median time (days) for control tumors to reach target size−Median time (days) for control tumors to reach half the target size And, Log cell kill=T-C÷(3.32×TVDT) Statistical evaluations of data were performed using Gehan's generalized Wilcoxon test."}, "folate receptor (FR)": {"target": "T1, folate receptor (FR) (Homo sapiens, UniProt P15328)", "T1 construct": "FR expressed on KB tumor cells grown to confluence; endogenous in cells; host or cells: KB tumor cells", "T1 sequence (P15328 25-234)": "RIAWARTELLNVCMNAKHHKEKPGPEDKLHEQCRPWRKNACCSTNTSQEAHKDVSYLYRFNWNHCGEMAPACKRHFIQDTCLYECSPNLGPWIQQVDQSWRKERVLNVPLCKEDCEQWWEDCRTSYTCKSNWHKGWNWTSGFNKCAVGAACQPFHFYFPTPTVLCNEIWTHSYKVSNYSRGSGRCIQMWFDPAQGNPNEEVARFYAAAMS", "test": "Displacement of radiolabeled folic acid from FR expressed on KB tumor cells", "type": "binding", "settings": "compared to folic acid (RA = 1.0)", "experimental": "The binding of these folate conjugates of Compound AA to FR was determined in an assay that measures displacement of radiolabeled folic acid from FR expressed on KB tumor cells grown to confluence."}, "[5]": {"system": "FRα(−) M109 murine lung carcinoma", "test": "In vivo antitumor efficacy, FRα(−) M109 parent tumor model", "set-up": "species or system mice", "settings": "bolus IV; FIG. 5", "description": "as §4, §5, §6, §7"}, "FRα(+) 98M109 tumors": {"system": "FRα(+) 98M109 tumors", "test": "In vivo antitumor efficacy, FRα(+) 98M109 tumors with folate analog competition", "set-up": "species or system mice", "settings": "folate analog at 20-fold excess of the dose of compound J; FIG. 6", "description": "as §4, §5, §6, §7"}, "[6]": {"settings": "Homo sapiens, A2780, MTS assay, mean IC50 ± SD from four separate experiments, read-out: A2780 IC5"}, "[7]": {"settings": "Homo sapiens, HCT-116, read-out: HCT116 IC50 (nM)"}, "[8]": {"settings": "Homo sapiens, A2780, read-out: A2780 IC5 (nM)"}},
  "note": "Like-named read-outs stand apart in the source and are kept apart here.",
  "data": [
    {"smiles": "C/C(=C\\c1csc(C)n1)[C@@H]1C[C@H]2[C@@H](CCCC(C)[C@H](O)[C@@H](C)C(=O)C(C)(C)[C@@H](O)CC(=O)O1)N2CCO", "note": "(relative stereo) [Compound G, [1S-[1R*,3R*(E),7R*,10S*,11R*,12R*,16S*]]-7,11-Dihydroxy-17-[2-hydroxyethyl]-8,8,10,12-tetramethyl-3-[1-methyl-2-(2-methyl-4-thiazolyl)ethenyl]-4-oxa-17-azabicyclo[14.1.0]heptadecane-5,9-dione]", "values": [
      {"measurement": "fold more potent than compound AA", "setting": "[1]; IC90, KB cells, 17 hours", "result": "~4", "unit": "fold"},
      {"measurement": "fold more potent than compound CC", "setting": "[1]; IC90, KB cells, 17 hours", "result": "~2", "unit": "fold"},
      {"measurement": "fold more potent than ixabepilone", "setting": "[1]; IC90, KB cells, 17 hours", "result": "~6", "unit": "fold"},
      {"measurement": "concentration needed to kill 90% of clonogenic KB cancer cells (IC90)", "setting": "[1]; drug exposure duration of 17 hours, FIG. 3", "result": 4.3, "unit": "nM"}
    ]},
    {"smiles": "C/C(=C\\c1csc(CN)n1)C1C[C@@H]2O[C@]2(C)CCCC(C)[C@H](O)[C@@H](C)C(=O)C(C)(C)[C@@H](O)CC(=O)O1", "note": "(some centres unmarked) [Compound AA]", "values": [
      {"measurement": "R/S Ratio (A2780)", "setting": "A2780Tax", "result": 3},
      {"measurement": "R/S Ratio (HCT116)", "setting": "HCT116VM46", "result": 14.8},
      {"measurement": "IC50", "setting": "[2]; Homo sapiens, HCT-116, MTS assay, mean IC50 ± SD from four separate experiments, read-out: HCT116 IC50", "result": "1.2 ± 0.3", "unit": "nM"},
      {"measurement": "IC50", "setting": "[3]; [6]", "result": "1.1 ± 0.4", "unit": "nM"}
    ]},
    {"smiles": "C/C(=C\\c1csc(C)n1)C1C[C@@H]2N[C@@H]2CCCC(C)[C@H](O)[C@@H](C)C(=O)C(C)(C)[C@@H](O)CC(=O)O1", "note": "(some centres unmarked) [Compound CC]", "values": [
      {"measurement": "R/S Ratio (A2780)", "setting": "A2780Tax", "result": 4.7},
      {"measurement": "R/S Ratio (HCT116)", "setting": "HCT116VM46", "result": 3.1},
      {"measurement": "IC50", "setting": "[2]; [7]", "result": "4.2 ± 2.8", "unit": "nM"},
      {"measurement": "IC50", "setting": "[3]; [8]", "result": "3.4 ± 1.5", "unit": "nM"}
    ]},
    {"smiles": "C/C(=C\\c1csc(C)n1)[C@@H]1C[C@H]2[C@@H](CCC[C@H](C)[C@H](O)[C@@H](C)C(=O)C(C)(C)[C@@H](O)CC(=O)O1)N2CCOC(=O)OCCSSC[C@H](NC(=O)[C@H](CC(=O)O)NC(=O)[C@H](CCCNC(=N)N)NC(=O)[C@H](CC(=O)O)NC(=O)CC[C@H](NC(=O)c1ccc(NCc2cnc3nc(N)[nH]c(=O)c3n2)cc1)C(=O)O)C(=O)O", "note": "(some centres unmarked) [Compound J]", "values": [
      {"measurement": "toxicity at two lower dose levels", "setting": "[4]; dose levels below MTD", "result": "minimal toxicity"},
      {"measurement": "antitumor effects compared at the MTDs", "setting": "[4]; versus ixabepilone", "result": "superior antitumor effects than ixabepilone"},
      {"measurement": "relative affinity (RA) for folate receptor", "setting": "folate receptor (FR)", "result": 0.77},
      {"measurement": "antitumor activity in FRα(−) M109 parent tumor model", "setting": "[5]", "result": "poor activity at all dose levels tested"},
      {"measurement": "effect of co-administration of a folate analog on antitumor effects", "setting": "FRα(+) 98M109 tumors", "result": "protect FRα(+) 98M109 tumors from the antitumor effects of compound J"}
    ]},
    {"smiles": "C/C(=C\\c1csc(C)n1)C1C[C@H]2[C@@H](CCCC(C)[C@H](O)[C@@H](C)C(=O)C(C)(C)[C@@H](O)CC(=O)O1)N2C", "note": "(some centres unmarked) [DD]", "values": [
      {"measurement": "R/S Ratio (A2780)", "setting": "A2780Tax", "result": 4.1},
      {"measurement": "R/S Ratio (HCT116)", "setting": "HCT116VM46", "result": 0.6},
      {"measurement": "IC50", "setting": "[2]; [7]", "result": "0.37 ± 0.13", "unit": "nM"},
      {"measurement": "IC50", "setting": "[3]; [8]", "result": "0.25 ± 0.06", "unit": "nM"}
    ]},
    {"smiles": "C/C(=C\\c1csc(C)n1)[C@@H]1C[C@@H]2O[C@]2(C)CCC[C@H](C)[C@H](O)[C@@H](C)C(=O)C(C)(C)[C@@H](O)CC(=O)O1", "note": "[Epothilone B]", "values": [
      {"measurement": "R/S Ratio (A2780)", "setting": "A2780Tax", "result": 2.5},
      {"measurement": "R/S Ratio (HCT116)", "setting": "HCT116VM46", "result": 0.5},
      {"measurement": "IC50", "setting": "[2]; MTS assay, mean IC50 ± SD from four separate experiments, read-out: HCT116 IC50", "result": "0.4 ± 0.13", "unit": "nM"},
      {"measurement": "IC50", "setting": "[3]; MTS assay, mean IC50 ± SD from four separate experiments, read-out: A2780 IC5", "result": "0.23 ± 0.09", "unit": "nM"}
    ]},
    {"smiles": "Nc1nc2ncc(CNc3ccc(C(=O)N[C@@H](CCC(=O)O)C(=O)O)cc3)nc2c(=O)[nH]1", "note": "[folic acid]", "values": [
      {"measurement": "relative affinity (RA) for folate receptor", "setting": "folate receptor (FR)", "result": 1.0}
    ]},
    {"smiles": "C/C(=C\\c1csc(C)n1)[C@@H]1C[C@@H]2O[C@]2(C)CCC[C@H](C)[C@H](O)[C@@H](C)C(=O)C(C)(C)[C@@H](O)CC(=O)N1", "note": "[ixabepilone]", "values": [
      {"measurement": "antitumor activity in FRα(−) M109 parent tumor model", "setting": "[5]", "result": "active at its MTD"}
    ]},
    {"smiles": "CC(=O)O[C@H]1C(=O)[C@@]2(C)[C@H]([C@H](OC(=O)c3ccccc3)[C@]3(O)C[C@H](OC(=O)[C@H](O)[C@@H](NC(=O)c4ccccc4)c4ccccc4)C(C)=C1C3(C)C)[C@]1(OC(C)=O)CO[C@@H]1C[C@@H]2O", "note": "[paclitaxel]", "values": [
      {"measurement": "R/S Ratio (HCT116)", "setting": "HCT116VM46", "result": 150},
      {"measurement": "IC50", "setting": "[3]; [6]", "result": "3.1 ± 1", "unit": "nM"}
    ]}
  ]
}
